Results: ChEMBL document CHEMBL4616633, “Citral Inhibits the Inflammatory Response and Hyperalgesia in Mice: The Role of TLR4, TLR2/Dectin-1, and CB2 Cannabinoid Receptor/ATP-Sensitive K+ Channel Pathways” (J Nat Prod, 2020)
Calls of active or inactive are those of the source. The rule behind the calls is not given here.

Experiments:
Mus musculus [1] = test: Inhibition of carrageenan-induced paw edema in Swiss mouse at 0.5 mg/kg, sc pretreated for 1 hr followed by carrageenan-stimulation and measured after 6 hrs relative to control; assay type: functional
Mus musculus [2] = test: Inhibition of zymosan-induced TLR2/Dectin-1 Signaling Pathway assessed as reduction in paw edema in Swiss mouse at 0.5 mg/kg, sc pretreated for 1 hr followed by […] and measured after 48 hrs relative to control; assay type: functional
Mus musculus [3] = test: Inhibition of carrageenan-induced thermal allodynia in Swiss mouse at 0.5 mg/kg, sc pretreated for 1 hr followed by carrageenan-stimulation and measured after 6 hrs relative to control; assay type: functional
Mus musculus [4] = test: Inhibition of carrageenan-induced paw edema in Swiss mouse at 1.5 mg/kg, ip pretreated for 30 mins followed by carrageenan-stimulation and measured after 6 hrs; assay type: functional, organism-based
[5] = Psychoactive effect in Swiss mouse assessed as antinociceptive effect by measuring paw withdrawal latencies at 1.5 mg/kg, ip and measured for 6 hrs; assay type: ADME, organism-based; details: in vivo
[6] = Psychoactive effect in Swiss mouse assessed as reduction in locomotor activity by measuring change in distance travelled at 1.5 mg/kg, ip and measured for 6 hrs; assay type: ADME, organism-based; details: in vivo
[7] = Psychoactive effect in Swiss mouse assessed as catalepsy effect at 1.5 mg/kg, ip and measured for 6 hrs; assay type: ADME, organism-based; details: in vivo
[8] = Psychoactive effect in Swiss mouse assessed as hypothermic effects at 1.5 mg/kg, ip and measured for 6 hrs by thermometric method; assay type: ADME, organism-based; details: in vivo

SMILES	inhibition in vivo at 0.5 mg/kg (Mus musculus [1])	inhibition in vivo at 0.5 mg/kg (Mus musculus [2])	inhibition in vivo at 0.5 mg/kg (Mus musculus [3])	inhibition (Mus musculus [4])	Activity [5]	Activity [6]	Activity [7]	Activity [8]
C[C@@H]1C[C@H]2[C@@H]3CCC4=CC(=O)C=C[C@]4(C)[C@@]3(F)[C@@H](O)C[C@]2(C)[C@@]1(O)C(=O)CO [DEXAMETHASONE]	82%	45%	72%					
Cc1c(C(=O)c2cccc3ccccc23)c2cccc3c2n1[C@H](CN1CCOCC1)CO3 [WIN-552122]				Active	Toxic	Toxic	Toxic	Toxic
